The structures appear in SMILES notation.

The values that follow come from ChEMBL document CHEMBL1127291, “Bioreductive markers for hypoxic cells: 2-nitroimidazoles with biotinylated 1-substituents” (J Med Chem, 1994).

Data set [1] concerns CaNT. The experiment in a line: Cytometric distribution of cell nuclei from CaNT tumors treated in mice. The following applies: Mus musculus. In kind it is functional, cell-based.
Data set [2] relates to CaNT. The experiment in a line: Cytometric distribution of single cells from CaNT tumors treated in mice with breathing air. It counts as functional, cell-based. The following applies: Mus musculus.
Data set [3] deals with CaNT. Put plainly: Cytometric distribution of cell nuclei from CaNT tumors treated in mice with breathing carbogen. In kind it is functional, cell-based. The following applies: Mus musculus.
The test system of data set [4] is CaNT. The experiment in a line: Cytometric distribution of single cells from CaNT tumors treated in mice with breathing carbogen. It counts as functional, cell-based. The note with it: Mus musculus.
In data set [5] the test system is CaNT. The experiment in a line: Cytometric distribution of single cells from CaNT tumors treated in mice. It counts as functional, cell-based. The following applies: Mus musculus.
Data set [6] relates to CaNT. Put plainly: Cytometric distribution of cell nuclei from CaNT tumors treated in mice with breathing air. It counts as functional, cell-based. The following applies: Mus musculus.
A short description of data set [7]: Half life evaluated in plasma in vitro at 20 degree Centigrade. In kind it is ADME, cell-free.

`O=C1N[C@H]2[C@H](CS[C@H]2CCCCCn2ccnc2[N+](=O)[O-])N1`: the Distribution in data set [1] worked out at 0.85%; in data set [2], 16.5%; in data set [3] it was 0.69%; in data set [4], 3.4%; in data set [5], 1.2%; in data set [6] it was 11.7%.

In the case of `O=C(CCCC[C@@H]1SC[C@@H]2NC(=O)N[C@@H]21)NCCNC(=O)Cn1ccnc1[N+](=O)[O-]`, the half-life in data set [7] stood at 2 h.

For orientation: half-life means the time needed for the level to fall by half in the phase considered. Low readings indicate rapid decline, high ones slow decline.
